The results in this text go back to the supplement of paper PMC10307832.

Common to all, as to assay: relative viability (nuclei count vs DMSO), 5 days (fraction); higher = more cells survive
Compound in the assay “Neratinib + Luminespib”: CCOc1cc2ncc(C#N)c(Nc3ccc(OCc4ccccn4)c(Cl)c3)c2cc1NC(=O)/C=C/CN(C)C [Neratinib] + CCNC(=O)c1noc(-c2cc(C(C)C)c(O)cc2O)c1-c1ccc(CN2CCOCC2)cc1 [Luminespib] (partner 0.01 µM)
The procedure, abridged: (§1)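 Lung cancer cell lines were pin-tool dosed in 1536-well plates on the day after seeding, with either a lone drug or a fixed anchor-drug dose plus five library-drug doses (not always all listed) in √10 steps. Nuclei were counted on 4× images after 5 days. Relative viability is the ratio of treated-well to vehicle-well nuclei counts, with each value a median of duplicate plates.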

Compound in the assay “Neratinib + Foretinib”: CCOc1cc2ncc(C#N)c(Nc3ccc(OCc4ccccn4)c(Cl)c3)c2cc1NC(=O)/C=C/CN(C)C [Neratinib] + COc1cc2c(Oc3ccc(NC(=O)C4(C(=O)Nc5ccc(F)cc5)CC4)cc3F)ccnc2cc1OCCCN1CCOCC1 [Foretinib] (partner 0.25 µM)
The essentials: as §1

Compound in the assay “Neratinib + Dasatinib”: CCOc1cc2ncc(C#N)c(Nc3ccc(OCc4ccccn4)c(Cl)c3)c2cc1NC(=O)/C=C/CN(C)C [Neratinib] + Cc1nc(Nc2ncc(C(=O)Nc3c(C)cccc3Cl)s2)cc(N2CCN(CCO)CC2)n1 [Dasatinib] (partner 0.075 µM)
The procedure, abridged:
as §1

Compound in the assay “Neratinib + Decitabine”: CCOc1cc2ncc(C#N)c(Nc3ccc(OCc4ccccn4)c(Cl)c3)c2cc1NC(=O)/C=C/CN(C)C [Neratinib] + Nc1ncn([C@H]2C[C@H](O)[C@@H](CO)O2)c(=O)n1 [Decitabine] (partner 2 µM)
The essentials: as §1

In the case of RERF-LC-KJ, the relative viability in the assay with Neratinib + Luminespib (first compound 0.01 µM) was found to be 1.45; with Neratinib + Luminespib (first compound 0.03162 µM) it was 1.18; in the assay with Neratinib + Luminespib (first compound 0.1 µM) it was 1.16; in the assay with Neratinib + Luminespib (first compound 0.3162 µM), 1.14; with Neratinib + Luminespib (first compound 1 µM), 0.531; with Neratinib + Foretinib (first compound 0.01 µM), 0.924. Moreover, the relative viability with Neratinib + Foretinib (first compound 0.03162 µM) was determined as 0.992; with Neratinib + Foretinib (first compound 0.1 µM) it was 0.896; in the assay with Neratinib + Foretinib (first compound 0.3162 µM) it was 0.872; with Neratinib + Foretinib (first compound 1 µM) it was 0.43; in the assay with Neratinib + Dasatinib (first compound 0.01 µM), 0.941; with Neratinib + Dasatinib (first compound 0.03162 µM), 0.822. For the same cell line, the relative viability with Neratinib + Dasatinib (first compound 0.1 µM) was determined as 0.681; with Neratinib + Dasatinib (first compound 0.3162 µM) it was 0.653; with Neratinib + Dasatinib (first compound 1 µM), 0.335; with Neratinib + Decitabine (first compound 0.01 µM), 0.777; in the assay with Neratinib + Decitabine (first compound 0.03162 µM), 0.744; in the assay with Neratinib + Decitabine (first compound 0.1 µM) it was 0.618. In addition, the relative viability with Neratinib + Decitabine (first compound 0.3162 µM) was found to be 0.72; with Neratinib + Decitabine (first compound 1 µM) it was 0.457.

Consider SK-LU-1, for which the relative viability stood at 0.187 with Neratinib + Luminespib (first compound 0.01 µM); 0.213 in the assay with Neratinib + Luminespib (first compound 0.03162 µM); 0.192 with Neratinib + Luminespib (first compound 0.1 µM); 0.178 in the assay with Neratinib + Luminespib (first compound 0.3162 µM); 0.176 with Neratinib + Luminespib (first compound 1 µM); 0.917 with Neratinib + Foretinib (first compound 0.01 µM). Further, the relative viability with Neratinib + Foretinib (first compound 0.03162 µM) was 0.938; with Neratinib + Foretinib (first compound 0.1 µM) it was 0.816; with Neratinib + Foretinib (first compound 0.3162 µM), 0.46; with Neratinib + Foretinib (first compound 1 µM) it was 0.302; with Neratinib + Dasatinib (first compound 0.01 µM) it was 0.174; with Neratinib + Dasatinib (first compound 0.03162 µM), 0.175. Further, the relative viability in the assay with Neratinib + Dasatinib (first compound 0.1 µM) came to 0.168; in the assay with Neratinib + Dasatinib (first compound 0.3162 µM), 0.195; with Neratinib + Dasatinib (first compound 1 µM), 0.173; in the assay with Neratinib + Decitabine (first compound 0.01 µM), 0.662; with Neratinib + Decitabine (first compound 0.03162 µM), 0.796; in the assay with Neratinib + Decitabine (first compound 0.1 µM), 0.588. In addition, the relative viability turned out to be 0.579 in the assay with Neratinib + Decitabine (first compound 0.3162 µM) and 0.421 with Neratinib + Decitabine (first compound 1 µM).

For the cell line SK-MES-1, the relative viability with Neratinib + Luminespib (first compound 0.01 µM) stood at 1.08; in the assay with Neratinib + Luminespib (first compound 0.03162 µM), 0.437; with Neratinib + Luminespib (first compound 0.1 µM) it was 0.428; with Neratinib + Luminespib (first compound 0.3162 µM) it was 0.267; with Neratinib + Luminespib (first compound 1 µM), 0.187; with Neratinib + Foretinib (first compound 0.01 µM) it was 0.97. The relative viability stood at 0.985 with Neratinib + Foretinib (first compound 0.03162 µM); 0.735 with Neratinib + Foretinib (first compound 0.1 µM); 0.832 in the assay with Neratinib + Foretinib (first compound 0.3162 µM); 0.375 in the assay with Neratinib + Foretinib (first compound 1 µM); 0.375 in the assay with Neratinib + Dasatinib (first compound 0.01 µM); 0.25 with Neratinib + Dasatinib (first compound 0.03162 µM). Also, the relative viability came to 0.163 with Neratinib + Dasatinib (first compound 0.1 µM); 0.14 with Neratinib + Dasatinib (first compound 0.3162 µM); 0.14 with Neratinib + Dasatinib (first compound 1 µM); 0.401 with Neratinib + Decitabine (first compound 0.01 µM); 0.403 with Neratinib + Decitabine (first compound 0.03162 µM); 0.3 in the assay with Neratinib + Decitabine (first compound 0.1 µM). Moreover, the relative viability is 0.299 with Neratinib + Decitabine (first compound 0.3162 µM) and 0.221 with Neratinib + Decitabine (first compound 1 µM).

Take SW 900: the relative viability was determined as 0.184 in the assay with Neratinib + Luminespib (first compound 0.01 µM); 0.157 with Neratinib + Luminespib (first compound 0.03162 µM); 0.148 with Neratinib + Luminespib (first compound 0.1 µM); 0.194 with Neratinib + Luminespib (first compound 0.3162 µM); 0.169 with Neratinib + Luminespib (first compound 1 µM); 0.937 in the assay with Neratinib + Foretinib (first compound 0.01 µM). Further, the relative viability with Neratinib + Foretinib (first compound 0.03162 µM) was found to be 0.917; with Neratinib + Foretinib (first compound 0.3162 µM), 0.865; with Neratinib + Foretinib (first compound 1 µM), 0.709; with Neratinib + Dasatinib (first compound 0.01 µM), 0.544; with Neratinib + Dasatinib (first compound 0.03162 µM), 0.732; in the assay with Neratinib + Dasatinib (first compound 0.1 µM), 0.392. The relative viability with Neratinib + Dasatinib (first compound 0.3162 µM) stood at 0.458; with Neratinib + Dasatinib (first compound 1 µM), 0.454; with Neratinib + Decitabine (first compound 0.01 µM), 0.438; with Neratinib + Decitabine (first compound 0.03162 µM), 0.43; with Neratinib + Decitabine (first compound 0.1 µM) it was 0.427; in the assay with Neratinib + Decitabine (first compound 0.3162 µM), 0.514. In the assay with Neratinib + Decitabine (first compound 1 µM), the relative viability amounted to 0.469.

Take SW 1573: the relative viability turned out to be 0.235 with Neratinib + Luminespib (first compound 0.01 µM); 0.196 with Neratinib + Luminespib (first compound 0.03162 µM); 0.333 with Neratinib + Luminespib (first compound 0.1 µM); 0.188 with Neratinib + Luminespib (first compound 0.3162 µM); 0.132 with Neratinib + Luminespib (first compound 1 µM); 1.15 in the assay with Neratinib + Foretinib (first compound 0.01 µM). Moreover, the relative viability stood at 0.894 with Neratinib + Foretinib (first compound 0.03162 µM); 0.941 with Neratinib + Foretinib (first compound 0.1 µM); 0.97 with Neratinib + Foretinib (first compound 0.3162 µM); 0.722 with Neratinib + Foretinib (first compound 1 µM); 0.455 with Neratinib + Dasatinib (first compound 0.01 µM); 0.519 in the assay with Neratinib + Dasatinib (first compound 0.03162 µM). Further, the relative viability with Neratinib + Dasatinib (first compound 0.1 µM) came out at 0.455; with Neratinib + Dasatinib (first compound 0.3162 µM) it was 0.495; with Neratinib + Dasatinib (first compound 1 µM), 0.322; with Neratinib + Decitabine (first compound 0.01 µM), 0.466; in the assay with Neratinib + Decitabine (first compound 0.03162 µM), 0.628; with Neratinib + Decitabine (first compound 0.1 µM), 0.574. The figures for the relative viability in the assay with Neratinib + Decitabine (first compound 0.3162 µM) and with Neratinib + Decitabine (first compound 1 µM) were 0.507 and 0.265, respectively.

For UMC-11, the relative viability in the assay with Neratinib + Luminespib (first compound 0.01 µM) was determined as 1.15; with Neratinib + Luminespib (first compound 0.03162 µM), 1.1; in the assay with Neratinib + Luminespib (first compound 0.1 µM) it was 0.964; with Neratinib + Luminespib (first compound 0.3162 µM) it was 0.903; in the assay with Neratinib + Luminespib (first compound 1 µM), 0.763; with Neratinib + Foretinib (first compound 0.01 µM) it was 0.989. In addition, the relative viability with Neratinib + Foretinib (first compound 0.03162 µM) was 1.13; in the assay with Neratinib + Foretinib (first compound 0.1 µM) it was 1.02; with Neratinib + Foretinib (first compound 0.3162 µM) it was 0.954; with Neratinib + Dasatinib (first compound 0.01 µM) it was 0.482; in the assay with Neratinib + Dasatinib (first compound 0.03162 µM) it was 0.505; in the assay with Neratinib + Dasatinib (first compound 0.1 µM), 0.399. Moreover, the relative viability in the assay with Neratinib + Dasatinib (first compound 0.3162 µM) stood at 0.384; with Neratinib + Dasatinib (first compound 1 µM) it was 0.425; with Neratinib + Decitabine (first compound 0.01 µM), 0.324; with Neratinib + Decitabine (first compound 0.03162 µM), 0.574; in the assay with Neratinib + Decitabine (first compound 0.1 µM), 0.634; in the assay with Neratinib + Decitabine (first compound 0.3162 µM), 0.414. Moreover, the relative viability with Neratinib + Decitabine (first compound 1 µM) was determined as 0.194.
